According to the NIST ThermoML archive (doi:10.1016/j.jct.2006.07.025):
Numbers after ± are expanded uncertainties.

Assay: xn = mol fraction of the nth substance listed
Conditions: for surface tension liquid-gas: Pendant drop shape; for mass density: 101 kPa, Liquid, Vibrating tube method

Cc1cc(C)cc(C)c1 [1,3,5-trimethylbenzene] + CCCCOC(C)=O
Conditions | mass density [kg/m3] | surface tension liquid-gas [mN/m]
298.15 K, x2 = 0 | 861.04 ± 0.18 | 28.09 ± 0.31
298.15 K, x2 = 0.0736 | 861.9 ± 0.17 | –
298.15 K, x2 = 0.1009 | 862.23 ± 0.17 | 27.72 ± 0.31
298.15 K, x2 = 0.1521 | 862.84 ± 0.17 | –
298.15 K, x2 = 0.2018 | 863.45 ± 0.17 | 27.34 ± 0.3
298.15 K, x2 = 0.2523 | 864.09 ± 0.16 | –
298.15 K, x2 = 0.3003 | 864.7 ± 0.16 | 26.98 ± 0.3
298.15 K, x2 = 0.3499 | 865.36 ± 0.16 | –
298.15 K, x2 = 0.4005 | 866.03 ± 0.16 | 26.61 ± 0.29
298.15 K, x2 = 0.45 | 866.72 ± 0.16 | –
298.15 K, x2 = 0.4996 | 867.44 ± 0.15 | 26.27 ± 0.29
298.15 K, x2 = 0.5446 | 868.11 ± 0.15 | –
298.15 K, x2 = 0.5979 | 868.92 ± 0.15 | 25.93 ± 0.29
298.15 K, x2 = 0.6503 | 869.76 ± 0.15 | –
298.15 K, x2 = 0.7016 | 870.59 ± 0.15 | 25.62 ± 0.28
298.15 K, x2 = 0.7504 | 871.44 ± 0.15 | –
298.15 K, x2 = 0.8005 | 872.32 ± 0.14 | 25.36 ± 0.28
298.15 K, x2 = 0.846 | 873.17 ± 0.14 | –
298.15 K, x2 = 0.8981 | 874.13 ± 0.14 | 25.12 ± 0.28
298.15 K, x2 = 0.9333 | 874.87 ± 0.14 | –
303.15 K, x2 = 0 | 856.96 ± 0.18 | 27.67 ± 0.31
303.15 K, x2 = 0.1005 | 858.04 ± 0.17 | 27.29 ± 0.3
303.15 K, x2 = 0.1997 | 859.17 ± 0.17 | 26.9 ± 0.3
303.15 K, x2 = 0.3 | 860.37 ± 0.16 | 26.53 ± 0.29
303.15 K, x2 = 0.3996 | 861.61 ± 0.16 | 26.14 ± 0.29
303.15 K, x2 = 0.5007 | 862.98 ± 0.16 | 25.79 ± 0.29
303.15 K, x2 = 0.6007 | 864.4 ± 0.15 | 25.45 ± 0.28
303.15 K, x2 = 0.7001 | 865.94 ± 0.15 | 25.12 ± 0.28
303.15 K, x2 = 0.7971 | 867.56 ± 0.15 | 24.85 ± 0.28
303.15 K, x2 = 0.9009 | 869.4 ± 0.14 | 24.6 ± 0.27
308.15 K, x2 = 0 | 852.84 ± 0.18 | 27.24 ± 0.3
308.15 K, x2 = 0.1002 | 853.8 ± 0.17 | 26.84 ± 0.3
308.15 K, x2 = 0.1986 | 854.82 ± 0.17 | 26.44 ± 0.29
308.15 K, x2 = 0.2997 | 855.94 ± 0.16 | 26.05 ± 0.29
308.15 K, x2 = 0.4003 | 857.12 ± 0.16 | 25.66 ± 0.29
308.15 K, x2 = 0.5007 | 858.39 ± 0.16 | 25.29 ± 0.28
308.15 K, x2 = 0.5997 | 859.71 ± 0.15 | 24.94 ± 0.28
308.15 K, x2 = 0.7005 | 861.18 ± 0.15 | 24.6 ± 0.27
308.15 K, x2 = 0.8 | 862.75 ± 0.15 | 24.32 ± 0.27
308.15 K, x2 = 0.9006 | 864.44 ± 0.14 | 24.07 ± 0.27
313.15 K, x2 = 0 | 848.74 ± 0.18 | 26.82 ± 0.3
313.15 K, x2 = 0.0498 | 849.12 ± 0.18 | –
313.15 K, x2 = 0.0997 | 849.59 ± 0.17 | 26.39 ± 0.3
313.15 K, x2 = 0.15 | 850.08 ± 0.17 | –
313.15 K, x2 = 0.2012 | 850.6 ± 0.17 | 25.97 ± 0.29
313.15 K, x2 = 0.2502 | 851.13 ± 0.17 | –
313.15 K, x2 = 0.2996 | 851.64 ± 0.16 | 25.57 ± 0.29
313.15 K, x2 = 0.3507 | 852.22 ± 0.16 | –
313.15 K, x2 = 0.3987 | 852.78 ± 0.16 | 25.16 ± 0.28
313.15 K, x2 = 0.4497 | 853.39 ± 0.16 | –
313.15 K, x2 = 0.5008 | 854 ± 0.16 | 24.79 ± 0.28
313.15 K, x2 = 0.5499 | 854.62 ± 0.16 | –
313.15 K, x2 = 0.5964 | 855.24 ± 0.15 | 24.42 ± 0.27
313.15 K, x2 = 0.6503 | 855.99 ± 0.15 | –
313.15 K, x2 = 0.6995 | 856.68 ± 0.15 | 24.07 ± 0.27
313.15 K, x2 = 0.7499 | 857.4 ± 0.15 | –
313.15 K, x2 = 0.7994 | 858.19 ± 0.15 | 23.79 ± 0.27
313.15 K, x2 = 0.8499 | 858.99 ± 0.15 | –
313.15 K, x2 = 0.9 | 859.83 ± 0.14 | 23.54 ± 0.26
313.15 K, x2 = 0.9495 | 860.67 ± 0.14 | –
